Measured values reported in patent US6692745B2, “Compositions and methods for inhibition of HIV-1 infection” (priority 2000, dated 2004).

Tests used:
[1] = tested on: HIV-1 envelope-mediated fusion between HeLa-EnvJR-FL and PM1 cells
Experimental: HIV-1 envelope-mediated fusion between HeLa-EnvJR-FL and PM1 cells was detected using a Resonance Energy Transfer (RET) assay.
HIV-1 inhibition data were analyzed according to the Combination Index method of Chou and Talay.
Equation (1) is a generalized form of the equations describing Michaelis-Menton enzyme kinetics, Langmuir adsorption isotherms, and Henderson-Hasselbalch ionization equilibria, for which m=1 in all cases. In the present case, K is equal to the IC50 value. K and m are determined by curve-fitting the dose-response curves.
After the best-fit parameters for K and m are obtained for the experimental agents and their combination, Equation (1) is rearranged to allow for calculation of c for a given f.
All concentrations are those required to achieve a given degree of inhibition. Equation (2) is used when the molecules are mutually nonexclusive, i.e., have different sites of action. Since this is the likely scenario for inhibitors of HIV-1 attachment and gp41 fusion intermediates, Equation (2) was used for all Combination Index calculations. Mutually nonexclusive calculations provide a more conservative estimate of the degree of synergy that mutually exclusive calculations, for which the c1mc2m/c1c2 term is dropped. CI<1 indicates synergy, CI=1 indicates purely additive effects, and CI>1 indicates antagonism. In general, CI values are most relevant at the higher levels of inhibition that are required to achieve a measurable clinical benefit.

HIV = details: Phase I/II; cited from earlier work

In the case of enfuvirtide, the “concentration of the individual agent contained in the combination giving 95% inhibition” value ([1]; 25:1 CD4-IgG2:T-20 mass ratio, calculated from known mass ratio) is reported as 0.044 µg/mL, the “Dose Reduction (ratio of inhibitor concentration alone v. in synergistic combination)” value ([1]; 95% inhibition, 25:1 CD4-IgG2:T-20 mass ratio) is reported as 5 fold and the “K, concentration of agent required to produce the median effect (equal to the IC50 value)” value ([1]; HeLa-EnvJR-FL and PM1 cells, RET after 4 h, mean of three independent experiments, best-fit to median effect equation, FIG. 1) is reported as 0.017 µg/mL. For the same substance, the “concentration required for inhibition of viral entry by 95%” value ([1]; agent used alone, or total concentration of the 25:1 combination, calculated from fitted K and m, FIG. 3) was 0.21 µg/mL and the “reduction of plasma HIV RNA levels” value (HIV) was no more than 2 logs.
